According to patent US20240317777A1, “NOVEL MACROCYCLIC AMINOPYRAZOLE COMPOUNDS AS CDK2 INHIBITORS” (Accutar Biotechnology Inc., priority 2023, published 2024):
Like-named read-outs stand apart in the source and are kept apart here.

Experiments:
[1] = the molecule shown is the open-chain precursor; other bond; 18-membered ring; DIEA; THF; 1.83 mM; 80.0 °C
[2] = the molecule shown is the open-chain precursor, other bond, 18-membered ring, DIEA, THF
[3] = the molecule shown is the open-chain precursor, other bond
[4] = other bond

## C[C@H](N)CC(F)(F)COc1cc(Nc2cc([C@H]3CC[C@@H](OC(=O)Oc4ccc([N+](=O)[O-])cc4)C3)nn2C(C)(C)C)ccn1
[1]
  ring closure, yield after HPLC: 66.2%

## C[C@H](N)CCO[C@@H](C)c1cc(Nc2cc([C@H]3CC[C@@H](OC(=O)Oc4ccc([N+](=O)[O-])cc4)C3)nn2C(C)(C)C)ccn1
[2]; 0.55 mM, 25.0 °C
  ring closure, crude yield: 86.5%

## C[C@H](N)CCCCc1cc(Nc2cc([C@H]3CC[C@@H](OC(=O)Oc4ccc([N+](=O)[O-])cc4)C3)nn2C(C)(C)C)ccn1
[2]; 0.92 mM, 20.0 °C
  ring closure, crude yield: 91.9%

## CC(C)(C)n1nc([C@H]2CC[C@@H](OC(=O)Oc3ccc([N+](=O)[O-])cc3)C2)cc1Nc1cncc(OCC2CC(N)C2)n1 (some centres unmarked)
[3]; 18-membered ring, DIEA, DMSO, 2.3 mM, 100.0 °C
  ring closure, isolated yield: 38%

## C[C@H](N)C(F)CCOc1cc(Nc2cc([C@H]3CC[C@@H](OC(=O)Oc4ccc([N+](=O)[O-])cc4)C3)nn2C(C)(C)C)ccn1 (some centres unmarked)
[3]; 18-membered ring, DIEA, DMSO, 1.71 mM, 100.0 °C
  ring closure, isolated yield: 97%

## C[C@H](N)CCCOc1cc(Nc2cc([C@H]3CC[C@@H](OC(=O)Oc4ccc([N+](=O)[O-])cc4)C3)nn2C(C)(C)C)ccn1
[3]; 18-membered ring, DIEA, THF, 3.53 mM, 50.0 °C
  ring closure, isolated yield: 84.8%

## CC(CC12CC(N)(C1)C2)Oc1cc(Nc2cc([C@H]3CC[C@@H](OC(=O)Oc4ccc([N+](=O)[O-])cc4)C3)nn2C(C)(C)C)cc(C(F)F)n1 (some centres unmarked)
[3]; 19-membered ring, DIEA, THF, 9.15 mM, 80.0 °C
  ring closure, isolated yield: 84.7%

## C[C@H](N)CCCOc1nccc(Nc2cc([C@H]3CC[C@@H](OC(=O)Oc4ccc([N+](=O)[O-])cc4)C3)nn2C(C)(C)C)n1
[3]; 18-membered ring, DIEA, DMSO, 1.79 mM, 80.0 °C
  ring closure, isolated yield: 93%

## C[C@H](N)CCCOc1cc(Nc2cc([C@H]3CC[C@@H](OC(=O)Oc4ccc([N+](=O)[O-])cc4)C3)nn2C(C)(C)C)cc(F)n1
[2]; 1.71 mM, 25.0 °C
  ring closure, crude yield: 97.8%

## CC(C)(C)n1nc([C@H]2CC[C@@H](OC(=O)Oc3ccc([N+](=O)[O-])cc3)C2)cc1Nc1ccnc(OCC2CC(N)C2)c1 (some centres unmarked)
[2]; 1.21 mM, 70.0 °C
  ring closure, crude yield: 96.7%

## CC(N)CCCOc1cc(Nc2cc([C@H]3CC[C@@H](OC(=O)Oc4ccc([N+](=O)[O-])cc4)C3)nn2C(C)(C)C)ccn1 (some centres unmarked)
[3]; 18-membered ring, DIEA, THF, 2.06 mM, 30.0 °C
  ring closure, isolated yield: 98.5%

## CC(C)(C)n1nc([C@H]2CC[C@@H](OC(=O)Oc3ccc([N+](=O)[O-])cc3)C2)cc1Nc1cc(OCCCCN)nc(C(F)F)c1
[3]; 18-membered ring, DIEA, THF, 1.11 mM, 25.0 °C
  ring closure, isolated yield: 65%

## C[C@H]1CCCCc2cc(ccn2)Nc2cc(nn2C(C)(C)C)[C@H]2CC[C@H](C2)OC(=O)N1
[4]; from C[C@H](N)CCCCc1cc(Nc2cc([C@H]3CC[C@@H](OC(=O)Oc4ccc([N+](=O)[O-])cc4)C3)nn2C(C)(C)C)ccn1, DIEA, THF, 0.92 mM, 20.0 °C, 4.0 h
  ring closure, yield of all isomers: 91.9%

## C[C@H](N)CCCOc1cc(Nc2cc([C@H]3CC[C@@H](OC(=O)Oc4ccc([N+](=O)[O-])cc4)C3)nn2C(C)(C)C)c(F)cn1
[2]; 1.71 mM, 25.0 °C
  ring closure, crude yield: 99.9%

## C[C@@H](N)CCCCc1cc(Nc2cc([C@H]3CC[C@@H](OC(=O)Oc4ccc([N+](=O)[O-])cc4)C3)nn2C(C)(C)C)ccn1
[3]; 18-membered ring, DIEA, THF, 1.42 mM, 100.0 °C
  ring closure, isolated yield: 99.5%

## CC(C)(C)n1nc([C@H]2CC[C@@H](OC(=O)Oc3ccc([N+](=O)[O-])cc3)C2)cc1Nc1cc(CCCCCN)nc(C(F)F)c1
[3]; 18-membered ring, DIEA, THF, 3.27 mM, 30.0 °C
  ring closure, isolated yield: 44.1%

## C[C@H]1CCO[C@H](C)c2cc(ccn2)Nc2cc(nn2C(C)(C)C)[C@H]2CC[C@H](C2)OC(=O)N1
[4]; from C[C@H](N)CCO[C@H](C)c1cc(Nc2cc([C@H]3CC[C@@H](OC(=O)Oc4ccc([N+](=O)[O-])cc4)C3)nn2C(C)(C)C)ccn1, DIEA, THF, 0.86 mM, 25.0 °C, 12.0 h
  ring closure, yield of all isomers: 92.1%

## C[C@H](N)C(F)(F)CCOc1cc(Nc2cc([C@H]3C[C@@H](F)[C@@H](OC(=O)Oc4ccc([N+](=O)[O-])cc4)C3)nn2C(C)(C)C)ccn1
[3]; 18-membered ring, DIEA, DMSO, 3.13 mM, 100.0 °C
  ring closure, isolated yield: 88%

## C[C@H]1CCCOc2cc(ccn2)Nc2cc(nn2C(C)(C)C)[C@H]2CC[C@H](C2)OC(=O)N1
[4]; from C[C@H](N)CCCOc1cc(Nc2cc([C@H]3CC[C@@H](OC(=O)Oc4ccc([N+](=O)[O-])cc4)C3)nn2C(C)(C)C)ccn1, DIEA, THF, 3.53 mM, 50.0 °C, 12.0 h
  ring closure, yield of all isomers: 84.8%

## C[C@H]1CCCOc2nccc(n2)Nc2cc(nn2C(C)(C)C)[C@H]2CC[C@H](C2)OC(=O)N1
[4]; from C[C@H](N)CCCOc1nccc(Nc2cc([C@H]3CC[C@@H](OC(=O)Oc4ccc([N+](=O)[O-])cc4)C3)nn2C(C)(C)C)n1, DIEA, DMSO, 1.79 mM, 80.0 °C, 3.0 h
  ring closure, yield of all isomers: 93%

## CC(C)(C)n1nc2cc1Nc1cncc(c1)OCCCCNC(=O)O[C@@H]1CC[C@H]2C1
[4]; from CC(C)(C)n1nc([C@H]2CC[C@@H](OC(=O)Oc3ccc([N+](=O)[O-])cc3)C2)cc1Nc1cncc(OCCCCN)c1, DIPEA, THF, 2.01 mM, 25.0 °C, 12.0 h, 2 steps
  ring closure, yield of all isomers: 49.3%

## CC(C)(C)n1nc([C@H]2C[C@@H](F)[C@@H](OC(=O)Oc3ccc([N+](=O)[O-])cc3)C2)cc1Nc1ccnc(OCC2CC(N)C2)c1 (some centres unmarked)
[3]; 18-membered ring, DIEA, THF, 1.7 mM, 60.0 °C
  ring closure, isolated yield: 37%

## CC(C)(C)n1nc([C@H]2CC[C@@H](OC(=O)Oc3ccc([N+](=O)[O-])cc3)C2)cc1Nc1cncc(OCCCCN)c1
[3]; 18-membered ring, DIEA, THF, 2.01 mM, 25.0 °C
  ring closure, isolated yield: 49.3%

## CC1OCCCNC(=O)O[C@@H]2CC[C@@H](C2)c2cc(n(C(C)(C)C)n2)Nc2ccnc1c2 (some centres unmarked)
[4]; from CC(OCCCN)c1cc(Nc2cc([C@H]3CC[C@@H](OC(=O)Oc4ccc([N+](=O)[O-])cc4)C3)nn2C(C)(C)C)ccn1, DIEA, THF, 6.34 mM, 100.0 °C, 3.0 h
  ring closure, yield of all isomers: 87.5%

## CC(C)(N)CCCOc1cc(Nc2cc([C@H]3CC[C@@H](OC(=O)Oc4ccc([N+](=O)[O-])cc4)C3)nn2C(C)(C)C)ccn1
[3]; 18-membered ring, DIEA/DMAP, THF, 1.81 mM, 50.0 °C
  ring closure, isolated yield: 88.8%

## CC(C)(C)n1nc2cc1Nc1cc(nc(C(F)F)c1)CCCCCNC(=O)O[C@@H]1CC[C@H]2C1
[4]; from CC(C)(C)n1nc([C@H]2CC[C@@H](OC(=O)Oc3ccc([N+](=O)[O-])cc3)C2)cc1Nc1cc(CCCCCN)nc(C(F)F)c1, DIPEA, THF, 3.27 mM, 30.0 °C, 12.0 h
  ring closure, yield of all isomers: 44.1%

## C[C@@H](N)CC/C=C/c1cc(Nc2cc([C@H]3CC[C@@H](OC(=O)Oc4ccc([N+](=O)[O-])cc4)C3)nn2C(C)(C)C)ccn1
[3]; 18-membered ring, DIEA, THF, 1.46 mM, 70.0 °C
  ring closure, isolated yield: 98.6%

## CC1(C)CCCOc2cc(ccn2)Nc2cc(nn2C(C)(C)C)[C@H]2CC[C@H](C2)OC(=O)N1
[4]; from CC(C)(N)CCCOc1cc(Nc2cc([C@H]3CC[C@@H](OC(=O)Oc4ccc([N+](=O)[O-])cc4)C3)nn2C(C)(C)C)ccn1, DIPEA, DMAP, THF, 1.82 mM, 50.0 °C, 39.0 h
  ring closure, yield of all isomers: 88.8%

## CC(OCCCN)c1cc(Nc2cc([C@H]3CC[C@@H](OC(=O)Oc4ccc([N+](=O)[O-])cc4)C3)nn2C(C)(C)C)ccn1 (some centres unmarked)
[2]; 6.34 mM, 100.0 °C
  ring closure, crude yield: 87.5%
